Data published in PMC5684143, “New melanocortin-like peptide of E. coli can suppress inflammation via the mammalian melanocortin-1 receptor (MC1R): possible endocrine-like function for microbes of the gut” (NPJ Biofilms and Microbiomes, 2017).

What was measured:
[1] = system: RAW 264.7 cells; assay: LPS-induced TNF release by RAW 264.7 cells; format: cell-based, murine; details: LPS 10 ng/ml; peptides 10^-12 M; agouti 10-10^5 pM
Protocol: (§1) Murine macrophage-like RAW 264.7 cells were obtained from American Type Culture Collection, and were grown in Dulbecco’s Modified Eagle’s Medium (DMEM, Life Technologies) containing 10% (vol/vol) heat-inactivated fetal bovine serum (FBS, Hyclone Lab. Inc.), penicillin 100 U/ml, and streptomycin 100 μg/ml (BioWhittaker Inc.). Cells were suspended in medium and incubated in 24-well or 48-well tissue-culture plates overnight in a humidified incubator (37 °C, 5% CO2). Growth medium was removed and replaced by Opti-MEM I serum-free medium (Life Technologies) overnight. In the experiments, cell monolayers were stimulated with HMGB1 or LPS, in the absence or presence of MECO-1 or alpha-MSH; cell-free supernatants were assayed for TNF by ELISA or HMGB1 by western blotting.
(§2) Concentrations of TNF and IL-6 were each determined using a commercially available enzyme-linked immunosorbent assay (ELISA) kit (R&D System Inc.) as previously described.[34] The levels of TNF or IL-6 were calculated with reference to standard curves.
Fig. 2 Cytokine-induced TNF release inhibited by MECO-1. a Lipopolysaccharide (LPS), derived from the cell wall of Gram-negative bacteria, is a TLR4 and TLR2 agonist. RAW 264.7 cells were treated with MECO-1 and LPS simultaneously and incubated overnight. Supernatants were tested for TNF with ELISA. b Poly I:C, synthetic double stranded RNA, is recognized by TLR3. RAW 264.7 cells were pre-treated with MECO-1 and then stimulated with Poly I:C. Supernatants were tested in ELISA by TNF. c Peptidoglycan (PGN), another TLR2 agonist, is ubiquitous in the cell wall of bacteria. RAW 264.7 cells were pre-treated with MECO-1 and then stimulated with PGN; after overnight stimulation, supernatants were harvested and tested for TNF ELISA. d HMGB-1. Each vertical bar is the mean of three experimental points, using HMGB-1 to induce TNF release. Three sets of three experiments were used for the measurement of inhibition
Fig. 5 a Bioactive analogues of MECO-1. Murine macrophage-like RAW 264.7 cells were incubated with lipopolysaccharide (LPS, 4 ng/ml) in the absence or presence of MECO-1 or BACTN or BACFR, synthetic peptides based on the C-termini of EF-G of Bacteroides thetaiotamicron and Bacteroides fragilis. EFG-2 refers to human mitochondrial EFG-2 (mtEFG2). For Bacteroides thetaiotamicron, we used a 38-mer consisting of residues 681–703 shown in Fig. 4c followed by 704–718 QDKLIKDFEAKQTEE. For Bacteroides fragilis, we used a 33-mer consisting of residues, 681–703 shown in Fig. 4c followed by 704–713 = QDKLIKDFES. At 6 h after stimulation, aliquots of cell-free medium were examined. In other experiments, the synthetic peptide based on human mitochondrial EF-G1 (mtEFG1) gave results indistinguishable from EF-G2 (data not shown). The precise structure of the synthetic peptides is indicated in the text (see section “Results” and Table 1). Shown is a representative experiment.

[2] = system: RAW 264.7 cells; assay: HMGB1-induced TNF release by RAW 264.7 macrophage-like cells; format: cell-based, murine
Protocol: Fig. 1 MECO-1 attenuates HMGB1-induced TNF release by macrophages in culture. Murine macrophage-like RAW 264.7 cells were incubated for up to 24 h with purified recombinant HMGB1 (0.1 mg/ml) in the absence or presence of MECO-1 (Panel a), or alpha-MSH (Panel b), at 10^−10 and 10^−12 M. The levels of TNF in the culture medium were determined by ELISA and expressed as mean ± SEM of two independent experiments (in duplicate). *p < 0.05, **p < 0.01 vs. control (“HMGB1 alone”). […] In panels c and d, cells were incubated with HMGB1 for 6 h with or without MECO-1 or alpha-MSH (10^−16–10^−6 M). Data represent mean ± SEM of three independent experiments performed in duplicate. With 10^−14 M peptide, results were significant at *p < 0.05, and at 10^−12 M or more were typically **p < 0.01. In our experiments, at concentrations of MECO-1, alpha-MSH, and ACTH of around 1 nM and higher, dose response curves often reverse direction, i.e., turn upward. The reversal is more clearly seen in Fig. 2. The mechanism of the reversal is not known. (Desensitization, receptor inactivation, receptor internalization, and dissociation of dimeric receptors are all plausible candidates.) As a result, the shape of the lower part of the curve and the actual inflection point may vary from experiment to experiment. This feature may be missed when results of several experiments are combined
as §1, §2
Fig. 3 Antibody to MC1R blocks suppressant effect of MECO-1 and alpha-MSH. Murine macrophage-like RAW 264.7 cells were pretreated with specific antibodies (“anti-MC1R Ab”) against melanocortin-1 receptor (MC1R) for 10 min prior to addition of HMGB1 in the absence or presence of MECO-1 or alpha-MSH at 10^−12 M. At 6 h, the TNF content of the cell-free medium was determined by ELISA, and expressed as mean ± SEM of two independent experiments performed in duplicate. ACTH at the same concentration gave results that were indistinguishable from those of alpha-MSH and MECO-1 (data not shown)

[3] = system: RAW 264.7 cells; assay: LPS-induced HMGB1 release by RAW 264.7 cells (western blot); format: cell-based, murine; details: LPS 100 ng/ml, peptide 10^-10 M, 16-20 hrs, four independent experiments, P < 0.01
Protocol: as §1, with “In the experiments, cell monolayers were stimulated with HMGB1 or LPS, in the absence or presence of MECO-1 or alpha-MSH; cell-free supernatants were assayed for TNF by ELISA or HMGB1 by western blotting.” left out
The levels of HMGB1 in the culture medium or murine serum were measured by western immunoblotting as previously described.[30] […] The relative band intensity was quantified by using the NIH image 1.59 software. The levels of HMGB1 (expressed as % maximum effect) were calculated with reference to standard curves generated with purified rHMGB1 and expressed as mean ± SEM of four experiments.
Murine macrophage-like RAW 264.7 cells were incubated with LPS (100 ng/ml) in the absence or presence of MECO-1 or alpha-MSH at 10^-10 M. At 16-20 hrs after stimulation, aliquots of cell-free medium were examined. HMGB1 levels in the (conditioned) culture medium were expressed as mean ± SEM of four independent experiments with the peak level (obtained with LPS) set at 100%. […]

[4] = system: human peripheral blood mononuclear cells (PBMC); assay: HMGB1-induced TNF release by human PBMC-derived macrophages; format: cell-based; details: differentiated human macrophages; HMGB1 6 hours; ELISA; three independent experiments in duplicate
Protocol: Human PBMC were isolated by density gradient through Ficoll-Paque^TM PLUS centrifugation (Amersham Pharmacia Biotech), and suspended in RPMI 1640 containing 10% (vol/vol) heat-inactivated human serum (BioWhittaker Inc.), penicillin 100 U/ml, and streptomycin 100 μg/ml, and incubated at 37 °C in a humidified incubator with 5% CO2 atmosphere overnight. Non-adherent cells were discarded. Adherent monocytes were washed twice with PBS and were then suspended in 12-well and 24-well tissue culture plates and incubated in the same medium but now enriched with 2.5 ng/ml macrophage colony-stimulating factor for 5–7 days.[33] […]
as §2
Human peripheral blood mononuclear cells (PBMC) were isolated by density gradient centrifugation through Ficoll-PaqueTM PLUS, and cultured for 5-7 days in medium containing macrophage colony-stimulating factor (2.5 ng/ml). […] The content of TNF in the cell-free medium was determined by ELISA and expressed as mean ± SEM of three independent experiments performed in duplicate. *p< 0.05, **p< 0.01 vs. control (=HMGB1 alone without added melanocortin peptide).

Mouse agouti (93-132)-NH2
effect of agouti on attenuation by MECO-1 and alpha-MSH of LPS-induced TNF release [1]: reversed the attenuation

O=S(=O)(NCCNC/C=C/c1ccc(Br)cc1)c1cccc2cnccc12 [H89]
effect of H89 on peptide-mediated reduction of HMGB1-induced TNF accumulation ([2]; H89 1mM added 10 minute before, peptides 10^-10 M, 6h, two independent experiments in duplicate): abrogated the effects of the three peptides

adrenocorticotropin (SYSMEHFRWGKPVGKKRRPVKVYPNGAEDESAEAFPLEF; Corticotropin; UniProt P01189 138-176, looked up) [ACTH, mammalian melanocortin hormone ACTH (1-39), purchased from Bachem]
suppression of HMGB-1-induced TNF release ([2]; RAW 264.7 cells, data not shown): highly significant suppression, typically in the subpicomolar range
TNF accumulation with HMGB1 on co-incubation with peptide ([2]; peptide 10^−12–10^−8 M): substantially reduced
LPS-induced HMGB-1 secretion [3]: indistinguishable from MECO-1 and alpha-MSH
attenuation of HMGB-1-induced TNF release [4]: very similar results
